According to ChEMBL document CHEMBL1158595, “2' biaryl amides as novel and subtype selective M1 agonists. Part II: Further optimization and profiling” (Bioorg Med Chem Lett, 2010):
The source made the active and inactive calls. The calls are words filed in the database; no cut-off is given here.

Tests used:
[1] = molecular target: T1, Muscarinic acetylcholine receptor M2 (Homo sapiens, UniProt P08172); assay: Inhibition of human muscarinic M2 receptor expressed in CHO cells; format: cell-based
T1 sequence (P08172 whole entry): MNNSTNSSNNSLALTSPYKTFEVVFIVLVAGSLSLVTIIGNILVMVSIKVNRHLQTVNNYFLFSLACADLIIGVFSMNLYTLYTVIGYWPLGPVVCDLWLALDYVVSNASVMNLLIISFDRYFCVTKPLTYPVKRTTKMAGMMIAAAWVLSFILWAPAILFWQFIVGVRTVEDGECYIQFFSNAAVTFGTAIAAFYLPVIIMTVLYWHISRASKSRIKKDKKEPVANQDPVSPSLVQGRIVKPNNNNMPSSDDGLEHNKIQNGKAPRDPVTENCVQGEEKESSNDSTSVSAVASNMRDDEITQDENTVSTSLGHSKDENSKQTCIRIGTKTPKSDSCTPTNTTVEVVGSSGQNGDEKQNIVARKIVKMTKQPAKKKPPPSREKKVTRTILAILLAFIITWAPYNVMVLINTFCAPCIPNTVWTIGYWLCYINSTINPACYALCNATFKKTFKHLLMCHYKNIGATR

[2] = molecular target: T2, Muscarinic acetylcholine receptor M1 (Homo sapiens) (UniProt P11229); assay: Intrinsic activity at human muscarinic M1 receptor expressed in CHO cells assessed as effect on acetylcholine-induced intracellular calcium level by FLIPR assay relative to acetylcholine; format: functional, cell-based
T2 sequence (whole entry): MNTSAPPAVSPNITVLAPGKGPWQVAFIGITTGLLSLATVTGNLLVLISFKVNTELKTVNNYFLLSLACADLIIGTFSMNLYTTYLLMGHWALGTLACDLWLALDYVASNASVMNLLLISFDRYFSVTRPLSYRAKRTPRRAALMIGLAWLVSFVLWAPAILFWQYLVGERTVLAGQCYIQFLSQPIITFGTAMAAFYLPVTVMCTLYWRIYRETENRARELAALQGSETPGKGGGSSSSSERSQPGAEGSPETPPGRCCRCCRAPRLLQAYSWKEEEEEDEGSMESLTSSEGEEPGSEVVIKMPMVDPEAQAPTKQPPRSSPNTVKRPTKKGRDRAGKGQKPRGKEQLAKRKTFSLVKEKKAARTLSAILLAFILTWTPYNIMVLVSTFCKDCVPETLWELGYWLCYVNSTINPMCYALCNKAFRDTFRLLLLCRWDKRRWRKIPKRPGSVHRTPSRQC

[3] = molecular target: T3, Muscarinic acetylcholine receptor M4 (Homo sapiens, UniProt P08173); assay: Inhibition of human muscarinic M4 receptor expressed in CHO cells; format: cell-based
T3 sequence (P08173 whole entry): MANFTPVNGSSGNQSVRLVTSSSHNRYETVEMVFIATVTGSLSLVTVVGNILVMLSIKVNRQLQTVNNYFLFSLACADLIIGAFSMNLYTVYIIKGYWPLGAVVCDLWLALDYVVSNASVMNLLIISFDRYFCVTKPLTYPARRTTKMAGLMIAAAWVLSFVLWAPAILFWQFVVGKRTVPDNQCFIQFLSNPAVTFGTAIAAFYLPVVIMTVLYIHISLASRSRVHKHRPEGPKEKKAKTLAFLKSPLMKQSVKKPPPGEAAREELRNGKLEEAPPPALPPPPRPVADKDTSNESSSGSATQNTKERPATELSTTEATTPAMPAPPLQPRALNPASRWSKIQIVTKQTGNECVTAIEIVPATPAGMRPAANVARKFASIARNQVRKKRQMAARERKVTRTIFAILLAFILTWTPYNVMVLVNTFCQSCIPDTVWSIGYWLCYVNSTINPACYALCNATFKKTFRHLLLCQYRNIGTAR

[4] = molecular target: T4, Muscarinic acetylcholine receptor M4 (Homo sapiens) (UniProt P08173); assay: Agonist activity at human muscarinic M4 receptor expressed in CHO cells assessed as effect on acetylcholine-induced intracellular calcium level by FLIPR assay; format: functional, cell-based
T4 sequence (whole entry): T3 sequence (P08173 whole entry)

[5] = molecular target: T5, Muscarinic acetylcholine receptor M1 (Homo sapiens, UniProt P11229); assay: Agonist activity at human muscarinic M1 receptor expressed in CHO cells assessed as effect on acetylcholine-induced intracellular calcium level by FLIPR assay; format: functional, cell-based
T5 sequence (P11229 whole entry): T2 sequence (whole entry)

[6] = Half life in rat at 10 mg/kg, sc; format: ADME, organism-based; design: dose 10 mg/kg, route subcutaneous; details: in vivo
[7] = molecular target: T6, Muscarinic acetylcholine receptor M3 (Homo sapiens, UniProt P20309); assay: Agonist activity at human muscarinic M3 receptor expressed in CHO cells assessed as effect on acetylcholine-induced intracellular calcium level by FLIPR assay; format: functional, cell-based
Target sequence in this assay (P20309 whole entry, looked up): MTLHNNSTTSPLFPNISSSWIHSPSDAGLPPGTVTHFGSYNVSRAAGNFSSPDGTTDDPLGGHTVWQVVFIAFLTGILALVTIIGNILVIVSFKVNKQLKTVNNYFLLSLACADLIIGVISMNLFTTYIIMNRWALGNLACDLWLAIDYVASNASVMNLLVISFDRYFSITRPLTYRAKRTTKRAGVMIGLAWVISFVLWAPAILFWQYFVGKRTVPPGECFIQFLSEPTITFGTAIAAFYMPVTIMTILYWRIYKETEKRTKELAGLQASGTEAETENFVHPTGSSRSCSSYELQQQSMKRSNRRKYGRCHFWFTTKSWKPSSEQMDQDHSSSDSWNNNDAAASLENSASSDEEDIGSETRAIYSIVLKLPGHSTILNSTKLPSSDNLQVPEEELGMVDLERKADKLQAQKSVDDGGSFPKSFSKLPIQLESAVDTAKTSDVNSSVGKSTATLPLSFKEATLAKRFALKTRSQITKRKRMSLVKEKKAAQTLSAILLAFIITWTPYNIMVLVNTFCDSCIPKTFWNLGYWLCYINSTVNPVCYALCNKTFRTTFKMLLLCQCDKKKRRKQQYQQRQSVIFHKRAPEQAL

[8] = tested on: Rattus norvegicus; assay: AUC in rat at 10 mg/kg, sc; format: ADME, organism-based, Plasma; design: dose 10 mg/kg, route subcutaneous; details: in vivo
[9] = molecular target: T7, Muscarinic acetylcholine receptor M2 (Homo sapiens) (UniProt P08172); assay: Agonist activity at human muscarinic M2 receptor expressed in CHO cells assessed as effect on acetylcholine-induced intracellular calcium level by FLIPR assay; format: functional, cell-based
T7 sequence (whole entry): T1 sequence (P08172 whole entry)

[10] = molecular target: T6, Muscarinic acetylcholine receptor M3; assay: Inhibition of human muscarinic M3 receptor expressed in CHO cells; format: cell-based
Target sequence in this assay (P20309 whole entry): as the sequence (P20309 whole entry, looked up) above

[11] = molecular target: T8, Muscarinic acetylcholine receptor M5 (Homo sapiens) (UniProt P08912); assay: Agonist activity at human muscarinic M5 receptor expressed in CHO cells assessed as effect on acetylcholine-induced intracellular calcium level by FLIPR assay; format: functional, cell-based
T8 sequence (whole entry): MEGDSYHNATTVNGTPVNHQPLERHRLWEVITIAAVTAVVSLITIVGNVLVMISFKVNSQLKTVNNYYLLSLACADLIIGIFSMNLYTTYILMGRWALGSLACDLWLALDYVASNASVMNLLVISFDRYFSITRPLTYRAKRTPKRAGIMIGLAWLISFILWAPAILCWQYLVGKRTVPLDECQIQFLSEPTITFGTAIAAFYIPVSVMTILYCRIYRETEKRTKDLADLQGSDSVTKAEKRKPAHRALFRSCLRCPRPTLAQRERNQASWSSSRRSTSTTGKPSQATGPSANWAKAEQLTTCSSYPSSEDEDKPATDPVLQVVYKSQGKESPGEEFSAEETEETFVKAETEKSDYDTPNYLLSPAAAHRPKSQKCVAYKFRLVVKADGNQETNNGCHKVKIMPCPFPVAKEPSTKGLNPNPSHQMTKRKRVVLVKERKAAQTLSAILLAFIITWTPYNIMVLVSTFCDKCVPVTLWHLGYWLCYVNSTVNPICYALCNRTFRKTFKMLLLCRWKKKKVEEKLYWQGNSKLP

[12] = molecular target: T9, Muscarinic acetylcholine receptor M5 (Homo sapiens, UniProt P08912); assay: Inhibition of human muscarinic M5 receptor expressed in CHO cells; format: cell-based
T9 sequence (P08912 whole entry): T8 sequence (whole entry)

[13] = Ratio of drug level in brain to blood in rat at 10 mg/kg, sc; format: ADME, organism-based; design: dose 10 mg/kg, route subcutaneous
[14] = Ratio of drug level in brain to blood in rat at 3 mg/kg, po; format: ADME, organism-based; design: dose 3 mg/kg, route oral
[15] = Half life in rat at 3 mg/kg, po; format: ADME, organism-based; design: dose 3 mg/kg, route oral; details: in vivo
[16] = tested on: Rattus norvegicus; assay: AUC in rat at 3 mg/kg, po; format: ADME, organism-based, Plasma; design: dose 3 mg/kg, route oral; details: in vivo

| Structure (SMILES) | IC50 [1] [nM] | Intrinsic activity [2] [%] | IC50 [3] [nM] | Activity [4] | EC50 [5] [nM] | half-life [6] [h] | Activity [7] | AUC [8] [ng·h/g] | Activity [9] | IC50 [10] [nM] | Activity [11] | IC50 [12] [nM] | Kp [13] | Kp [14] | half-life [15] [h] | AUC [16] [ng·h/g] |
| --- | --- | --- | --- | --- | --- | --- | --- | --- | --- | --- | --- | --- | --- | --- | --- | --- |
| C[C@H]1CNCC[C@@H]1CNC(=O)c1c(F)cccc1-c1cccc(Cl)c1 (relative stereo) | 200 | 116 | 158 | inactive | 0.794 | 2.3 | inactive | 1655 | inactive | 39.8 | inactive | 501 | 0.9 |  |  |  |
| C[C@H]1CNCC[C@]1(F)CNC(=O)c1c(F)cccc1-c1cccc(Cl)c1 | 2510 | 85 | 3160 |  | 10 |  |  |  |  | 5010 |  | 6310 |  | 0.3 | 3 | 2221 |
